Results: PMC9736374, “Design, Synthesis and Antimicrobial Properties of New Tetracyclic Quinobenzothiazine Derivatives” (International Journal of Molecular Sciences, 2022)

Legend:
[1] = system: vancomycin-resistant E. faecalis VRE 342B (VRE1); test: MBC, agar aliquot subculture method; assay type: cell-based, Enterococcus faecalis; details: VRE1 = VRE 342B
[2] = system: Staphylococcus aureus ATCC 29213; test: MBC, agar aliquot subculture method; assay type: cell-based; details: ATCC29213; SA = Staphylococcus aureus ATCC 29213
[3] = Lipophilicity by RP-TLC; assay type: physicochemical; details: Tris buffer pH 7.4/acetone, read-out: logPTLC
Method: The lipophilicity parameters were determined experimentally using reverse phase thin-layer chromatography (RP-TLC). Chromatograms were prepared on RP-18F254s plates (1.05559.0001, Merck, Germany) precoated with nonpolar silicone oil. Plates were developed in glass chromatography chambers previously saturated with vapor of mobile phase. The mobile phase was composed of 0.2M Tris buffer (pH = 7.4) and acetone in different concentrations, i.e., 50%, 60%, 70%, 80 and 90%. The chromatograms were visualised in UV light (λ = 254 nm). Determination of the RF coefficient was carried out twice for all compounds; in all cases, acetone concentrations used. The final value of RF is the mean of the two measurements. The obtained RF coefficient was used to calculate the value of the RM parameter according to the equation: RM = log [(1/RF) − 1]. By extrapolating RM values to zero acetone concentration, a relative RM0 lipophilicity parameter was obtained, according to the equation: RM = RM0 + bC, where b is slope and C is concentration of acetone in mobile phase. Based on RM0 and the calibration curve, the values of logPTLC for compounds 6a–l were determined. The calibration curve was calculated using the relationship between RM0 of the standard molecules (acetanilide, p-kresol, p-bromoacetophenone, benzophenone, anthracene) and the corresponding logP parameters specified by the extraction method, respectively. RM0 parameters of the standard molecules and quinobenzothiazine derivatives 6a–l were determined in the same empirical conditions.

[4] = system: S. aureus; test: Crystal violet uptake (membrane permeability); assay type: cell-based, Staphylococcus aureus; details: 4× MIC, 1 h; compared to growth control and 1% Tween 20
Method: Phenothiazines are also known for their ability to interact with and damage the cell wall, which has fatal consequences for the microorganism. Therefore, the bacterial suspensions were treated by compounds 6a, 6e, 6g, 6j and 6k (4× MIC) for 1 h. The uptake of crystal violet was expressed as a percentage compared to the original crystal violet solution.

[5] = system: vancomycin-resistant E. faecalis VRE 368 (VRE2); test: MBC, agar aliquot subculture method; assay type: cell-based, Enterococcus faecalis; details: VRE2 = VRE 368
[6] = system: vancomycin-resistant E. faecalis VRE 725B (VRE3); test: MIC, microtitration broth method; assay type: cell-based, Enterococcus faecalis; details: VRE3 = VRE 725B; 24 h, 37 °C
[7] = system: Enterococcus faecalis ATCC 29212; test: MIC, microtitration broth method; assay type: cell-based; details: ATCC29212; EF = Enterococcus faecalis; 24 h, 37 °C
[8] = system: methicillin-resistant S. aureus 63718 (MRSA3); test: MBC, agar aliquot subculture method; assay type: cell-based; details: Staphylococcus aureus; MRSA3 = 63718
[9] = system: vancomycin-resistant E. faecalis VRE 725B (VRE3); test: MBC, agar aliquot subculture method; assay type: cell-based, Enterococcus faecalis; details: VRE3 = VRE 725B
[10] = system: vancomycin-resistant E. faecalis VRE 368 (VRE2); test: MIC, microtitration broth method; assay type: cell-based, Enterococcus faecalis; details: VRE2 = VRE 368; 24 h, 37 °C
[11] = system: vancomycin-resistant E. faecalis VRE 342B (VRE1); test: MIC, microtitration broth method; assay type: cell-based, Enterococcus faecalis; details: VRE1 = VRE 342B; 24 h, 37 °C
[12] = system: S. aureus ATCC 29213 respiratory activity; test: MTT assay of bacterial respiration; assay type: cell-based, Staphylococcus aureus; details: for Conc.: corresponding multiple of MBC with at least 70% inhibition of respiratory activity / Conc.: lowest multiple of MIC with at least 70% inhibition of respiratory activity: S. aureus ATCC 29213, MTT, 24 h; for Decrease in viability < 70% at MIC value (MTT): S. aureus ATCC 29213, at MIC; for S. aureus Respiration Inhibition: at the concentration given
[13] = system: methicillin-resistant S. aureus SA 3202 (MRSA1); test: MIC, microtitration broth method; assay type: cell-based; details: Staphylococcus aureus; MRSA1 = SA 3202; 24 h, 37 °C
[14] = system: M. smegmatis ATCC 700084; test: In vitro antimycobacterial MIC, broth dilution micro-method; assay type: cell-based, Mycobacterium smegmatis; details: Mycolicibacterium smegmatis, ATCC700084, 72 h; MS = M. smegmatis ATCC 700084; 3 days, 37 °C
[15] = system: methicillin-resistant S. aureus SA 630 (MRSA2); test: MIC, microtitration broth method; assay type: cell-based; details: Staphylococcus aureus; MRSA2 = SA 630; 24 h, 37 °C
[16] = system: normal human dermal fibroblasts (NHDF); test: In vitro cell viability, WST-1 assay; assay type: cell-based; details: 72 h
Method: Compounds were evaluated for their antiproliferative activity using NHDF (normal human dermal fibroblasts, ATCC, Manassas, VA, USA). The cultured cells were kept at 37 °C and 5% CO2. The cells were seeded (1 × 10^4 cells/well/100 μL DMEM supplemented with 10% FCS and streptomycin/penicillin) into 96-well plates (Corning Inc., Corning, NY, USA). Cells were counted using a hemocytometer (Burker chamber) and phase contrast Olympus IX50 microscope equipped with Sony SSC-DC58 AP camera and Olympus DP10 digital camera. The cell viability of the compounds was determined using the Cell Proliferation Reagent WST-1 assay (Roche Molecular Biochemicals, Mannheim, Germany). The examined cells were exposed to the tested compounds (1 mg/mL DMSO stock) for 72 h at various concentrations (0.1–100 μg/mL). The control was included in order to eliminate the DMSO effect at the concentration used. Cell cultures were incubated with WST-1 (10 μL) for 1 h. The absorbance of the samples was measured against a background control at 450 nm using a microplate reader with a reference wavelength at 600 nm. The obtained results are expressed as means of at least two independent experiments performed in triplicate.

[17] = system: Staphylococcus aureus ATCC 29213; test: MIC, microtitration broth method; assay type: cell-based; details: ATCC29213; SA = Staphylococcus aureus ATCC 29213; 24 h, 37 °C
[18] = system: methicillin-resistant S. aureus SA 3202 (MRSA1); test: MBC, agar aliquot subculture method; assay type: cell-based; details: Staphylococcus aureus; MRSA1 = SA 3202
[19] = system: methicillin-resistant S. aureus 63718 (MRSA3); test: MIC, microtitration broth method; assay type: cell-based; details: Staphylococcus aureus; MRSA3 = 63718; 24 h, 37 °C
[20] = system: methicillin-resistant S. aureus SA 630 (MRSA2); test: MBC, agar aliquot subculture method; assay type: cell-based; details: Staphylococcus aureus; MRSA2 = SA 630
[21] = system: Mycobacterium marinum CAMP 5644; test: In vitro antimycobacterial MIC, broth dilution micro-method; assay type: cell-based; details: CAMP5644, 504 h; MM = Mycobacterium marinum CAMP 5644; 21 days, 28 °C
[22] = system: Enterococcus faecalis ATCC 29212; test: MBC, agar aliquot subculture method; assay type: cell-based; details: ATCC29212; EF = Enterococcus faecalis

SMILES	MBC [1] [µM]	MBC [2] [µM]	chromatographic logP [3]	MBC [5] [µM]	MIC [6] [µM]	MIC [7] [µM]	MBC [8] [µM]	MBC [9] [µM]	MIC [10] [µM]	MIC [11] [µM]	MIC [13] [µM]	MIC [14] [µM]	MIC [15] [µM]	IC50 [16] [µM]	MIC [17] [µM]	MBC [18] [µM]	MIC [19] [µM]	MBC [20] [µM]	MIC [21] [µM]	MBC [22] [µM]	also measured
CCCOc1ccc2c(c1)Sc1c[n+](C)c3ccccc3c1N2 [Compound 6a, 9-propoxy-5-methyl-12H-quino[3,4-b][1,4]benzothiazinium chloride]	89.1	22.3	1.65	89.1	89.1	89.1	11.1	178	89.1	89.1	22.3	22.3	22.3	> 100	22.3	22.3	11.1	22.3	22.3	89.1	Effect on plasma membrane permeability (uptake of crystal violet) [4]: did not affect plasma membrane permeability; Conc.: corresponding multiple of MBC with at least 70% inhibition of respiratory activity [12]: 2× MIC (2× MBC); Conc.: lowest multiple of MIC with at least 70% inhibition of respiratory activity [12]: 2× MIC (2× MBC); Decrease in viability < 70% at MIC value (MTT) [12]: did not show a decrease in viability < 70%; S. aureus Respiration Inhibition [12]: 97.7%
C=CCOc1ccc2c(c1)Nc1c(c[n+](C)c3ccccc13)S2 [Compound 6e, 10-allyloxy-5-methyl-12H-quino[3,4-b][1,4]benzothiazinium chloride]	179	44.8	2.47	179	89.6	89.6	22.4	89.6	179	179	44.8	22.4	44.8	> 100	44.8	44.8	22.4	44.8	11.2	89.6	Effect on plasma membrane permeability (uptake of crystal violet) [4]: did not affect plasma membrane permeability; Conc.: corresponding multiple of MBC with at least 70% inhibition of respiratory activity [12]: 2× MIC (2× MBC); Conc.: lowest multiple of MIC with at least 70% inhibition of respiratory activity [12]: 2× MIC (2× MBC); Decrease in viability < 70% at MIC value (MTT) [12]: did not show a decrease in viability < 70%; S. aureus Respiration Inhibition [12]: 97.4%
C#CCOc1ccc2c(c1)Sc1c[n+](C)c3ccccc3c1N2 [Compound 6g, 9-propargyloxy-5-methyl-12H-quino[3,4-b][1,4]benzothiazinium chloride]	90.1	45.1	2.11	90.1	90.1	90.1	45.1	90.1	90.1	90.1	45.1	22.5	45.1	> 100	45.1	45.1	45.1	45.1	11.3	90.1	Effect on plasma membrane permeability (uptake of crystal violet) [4]: did not affect plasma membrane permeability; Conc.: corresponding multiple of MBC with at least 70% inhibition of respiratory activity [12]: 2× MIC (2× MBC); Conc.: lowest multiple of MIC with at least 70% inhibition of respiratory activity [12]: 2× MIC (2× MBC); Decrease in viability < 70% at MIC value (MTT) [12]: did not show a decrease in viability < 70%; S. aureus Respiration Inhibition [12]: 96.8%
C#CCOc1cccc2c1Nc1c(c[n+](C)c3ccccc13)S2 [Compound 6i, 11-propargyloxy-5-methyl-12H-quino[3,4-b][1,4]benzothiazinium chloride]	180	180	2.2	180	180	361	180	180	180	180	180	90.1	361	47.5	180	361	180	361	45.1	361	
C[n+]1cc2c(c3ccccc31)Nc1ccc(OCc3ccccc3)cc1S2 [Compound 6j, 9-benzyloxy-5-methyl-12H-quino[3,4-b][1,4]benzothiazinium chloride]	19.7	9.83	3.41	78.6	39.3	19.7	2.46	39.3	78.6	19.7	4.91	9.83	9.83	37.7	9.83	9.83	2.46	9.83	2.5	39.3	Effect on plasma membrane permeability (uptake of crystal violet) [4]: did not affect plasma membrane permeability; S. aureus Respiration Inhibition [12]: 91.3%
C[n+]1cc2c(c3ccccc31)Nc1c(OCc3ccccc3)cccc1S2 [Compound 6l, 11-benzyloxy-5-methyl-12H-quino[3,4-b][1,4]benzothiazinium chloride]	157	39.3	3.1	157	157	157	39.3	157	157	157	39.3	39.3	78.6	> 100	39.3	78.6	39.3	78.6	9.83	157	
